Columns and labels:
Assay in all cases: radiometric filter-binding kinase assay, Kinase HotSpot
Conditions in all cases: compound 0.5 µM; ATP 10 µM
CAMK1D (human) = CAMK1D (human) (UniProt Q8IU85)
CDK2 CCNA2 (human) = CDK2 CCNA2 (human) (UniProt P24941+P20248)
CDK1 CCNB1 (human) = CDK1 CCNB1 (human) (UniProt P06493+P14635)
TAOK1 (human) = TAOK1 (human) (UniProt Q7L7X3)
MAPK8 (human) = MAPK8 (human) (UniProt P45983)
EPHB4 (human) = EPHB4 (human) (UniProt P54760)
PLK2 (human) = PLK2 (human) (UniProt Q9NYY3)
INSR (human) = INSR (human) (UniProt P06213)
IGF1R (human) = IGF1R (human) (UniProt P08069)
CDC42BPA (human) = CDC42BPA (human) (UniProt Q5VT25)
INSRR (human) = INSRR (human) (UniProt P14616)
EPHA5 (human) = EPHA5 (human) (UniProt P54756)
[1] = target: TYK2 JH1 catalytic (human) (UniProt P29597)
MAPKAPK3 (human) = MAPKAPK3 (human) (UniProt Q16644)
Sequence of MAPKAPK3 (human) (Q16644 whole entry, looked up): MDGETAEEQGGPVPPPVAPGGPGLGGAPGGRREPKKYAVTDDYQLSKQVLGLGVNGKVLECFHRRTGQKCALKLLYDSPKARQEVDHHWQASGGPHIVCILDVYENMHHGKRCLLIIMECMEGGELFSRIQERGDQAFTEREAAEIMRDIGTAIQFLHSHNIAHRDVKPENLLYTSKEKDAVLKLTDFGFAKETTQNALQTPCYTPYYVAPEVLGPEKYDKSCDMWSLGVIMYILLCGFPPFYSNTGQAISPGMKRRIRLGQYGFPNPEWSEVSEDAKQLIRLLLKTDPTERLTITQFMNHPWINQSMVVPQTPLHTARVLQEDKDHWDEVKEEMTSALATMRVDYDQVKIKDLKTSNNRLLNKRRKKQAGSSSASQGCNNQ

ZAP70 (human) = ZAP70 (human) (UniProt P43403)
RPS6KA4 KD2 (human) = RPS6KA4 KD2 (human) (UniProt O75676)
EPHA7 (human) = EPHA7 (human) (UniProt Q15375)
MAPK12 (human) = MAPK12 (human) (UniProt P53778)
Sequence of MAPK12 (human) (P53778 whole entry, looked up): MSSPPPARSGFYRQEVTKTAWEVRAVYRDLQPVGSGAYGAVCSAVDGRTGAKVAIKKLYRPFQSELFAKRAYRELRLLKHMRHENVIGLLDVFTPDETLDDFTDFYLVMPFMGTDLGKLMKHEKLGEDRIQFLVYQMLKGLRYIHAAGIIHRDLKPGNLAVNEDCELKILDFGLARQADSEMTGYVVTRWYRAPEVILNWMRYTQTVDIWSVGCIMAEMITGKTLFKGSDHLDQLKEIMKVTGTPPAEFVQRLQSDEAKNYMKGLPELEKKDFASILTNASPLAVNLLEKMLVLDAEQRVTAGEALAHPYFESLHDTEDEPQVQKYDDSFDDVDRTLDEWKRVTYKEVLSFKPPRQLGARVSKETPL

STK11 (human) = STK11 (human) (UniProt Q15831)
AKT1 (human) = AKT1 (human) (UniProt P31749)
CSNK2A1 (human) = CSNK2A1 (human) (UniProt P68400)
FGFR4 (human) = FGFR4 (human) (UniProt P22455)
MAP3K10 (human) = MAP3K10 (human) (UniProt Q02779)
PRKCG (human) = PRKCG (human) (UniProt P05129)
FGFR1 (human) = FGFR1 (human) (UniProt P11362)
Sequence of FGFR1 (human) (P11362 whole entry, looked up): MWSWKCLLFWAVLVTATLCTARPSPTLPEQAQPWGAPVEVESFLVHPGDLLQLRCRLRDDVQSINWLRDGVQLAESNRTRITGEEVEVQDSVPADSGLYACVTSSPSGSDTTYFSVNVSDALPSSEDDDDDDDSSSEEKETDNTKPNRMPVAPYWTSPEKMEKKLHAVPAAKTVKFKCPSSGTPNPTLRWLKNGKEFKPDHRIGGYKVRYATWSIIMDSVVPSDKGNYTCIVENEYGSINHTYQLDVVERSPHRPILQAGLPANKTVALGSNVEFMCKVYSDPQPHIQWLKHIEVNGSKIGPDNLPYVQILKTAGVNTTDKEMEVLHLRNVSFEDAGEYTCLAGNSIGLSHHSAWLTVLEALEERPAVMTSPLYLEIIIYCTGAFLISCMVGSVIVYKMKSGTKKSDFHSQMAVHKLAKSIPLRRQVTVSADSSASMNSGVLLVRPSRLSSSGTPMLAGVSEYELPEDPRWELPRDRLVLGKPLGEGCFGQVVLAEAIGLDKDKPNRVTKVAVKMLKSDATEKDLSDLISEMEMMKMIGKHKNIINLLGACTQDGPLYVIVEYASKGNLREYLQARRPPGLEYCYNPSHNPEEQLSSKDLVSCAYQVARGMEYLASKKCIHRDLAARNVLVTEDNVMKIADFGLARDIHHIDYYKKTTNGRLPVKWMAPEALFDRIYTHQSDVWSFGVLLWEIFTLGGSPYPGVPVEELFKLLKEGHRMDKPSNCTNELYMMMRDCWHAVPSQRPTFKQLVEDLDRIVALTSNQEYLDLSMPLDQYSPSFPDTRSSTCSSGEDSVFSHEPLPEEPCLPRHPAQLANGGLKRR

MATK (human) = MATK (human) (UniProt P42679)
CAMK2B (human) = CAMK2B (human) (UniProt Q13554)
Sequence of CAMK2B (human) (Q13554 whole entry, looked up): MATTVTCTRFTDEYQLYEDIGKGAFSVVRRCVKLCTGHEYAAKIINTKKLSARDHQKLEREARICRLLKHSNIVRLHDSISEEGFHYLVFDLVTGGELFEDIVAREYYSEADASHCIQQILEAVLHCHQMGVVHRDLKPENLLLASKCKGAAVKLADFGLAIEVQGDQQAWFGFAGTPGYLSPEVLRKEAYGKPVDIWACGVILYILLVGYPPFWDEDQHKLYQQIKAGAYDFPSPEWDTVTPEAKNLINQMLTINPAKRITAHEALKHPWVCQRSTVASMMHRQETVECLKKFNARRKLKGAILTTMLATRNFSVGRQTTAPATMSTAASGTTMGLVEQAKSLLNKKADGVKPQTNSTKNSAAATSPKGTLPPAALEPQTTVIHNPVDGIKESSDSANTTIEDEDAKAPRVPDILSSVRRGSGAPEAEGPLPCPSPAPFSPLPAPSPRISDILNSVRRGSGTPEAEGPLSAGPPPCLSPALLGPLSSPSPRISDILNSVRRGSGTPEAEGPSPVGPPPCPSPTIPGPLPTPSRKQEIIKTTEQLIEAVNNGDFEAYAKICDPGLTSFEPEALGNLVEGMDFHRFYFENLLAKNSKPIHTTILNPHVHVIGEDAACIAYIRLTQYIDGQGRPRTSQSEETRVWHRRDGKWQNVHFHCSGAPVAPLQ

TAOK3 (human) = TAOK3 (human) (UniProt Q9H2K8)
GRK5 (human) = GRK5 (human) (UniProt P34947)
SRPK3 (human) = SRPK3 (human) (UniProt Q9UPE1)
Sequence of SRPK3 (human) (Q9UPE1 whole entry, looked up): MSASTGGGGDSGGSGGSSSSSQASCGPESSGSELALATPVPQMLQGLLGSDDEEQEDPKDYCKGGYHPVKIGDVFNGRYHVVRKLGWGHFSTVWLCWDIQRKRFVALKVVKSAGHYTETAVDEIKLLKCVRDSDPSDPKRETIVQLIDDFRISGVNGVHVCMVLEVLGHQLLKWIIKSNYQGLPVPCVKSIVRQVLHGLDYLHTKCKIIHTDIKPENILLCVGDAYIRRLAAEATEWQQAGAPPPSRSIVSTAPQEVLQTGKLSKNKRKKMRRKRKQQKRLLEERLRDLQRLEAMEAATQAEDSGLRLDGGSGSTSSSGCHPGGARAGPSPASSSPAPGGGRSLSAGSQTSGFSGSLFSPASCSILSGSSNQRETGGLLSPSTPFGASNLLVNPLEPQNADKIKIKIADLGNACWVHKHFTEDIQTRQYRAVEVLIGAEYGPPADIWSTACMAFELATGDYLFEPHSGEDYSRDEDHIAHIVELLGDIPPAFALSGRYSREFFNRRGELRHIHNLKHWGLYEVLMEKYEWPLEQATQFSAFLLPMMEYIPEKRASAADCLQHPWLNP

TNK2 (human) = TNK2 (human) (UniProt Q07912)
Sequence of TNK2 (human) (Q07912 whole entry, looked up): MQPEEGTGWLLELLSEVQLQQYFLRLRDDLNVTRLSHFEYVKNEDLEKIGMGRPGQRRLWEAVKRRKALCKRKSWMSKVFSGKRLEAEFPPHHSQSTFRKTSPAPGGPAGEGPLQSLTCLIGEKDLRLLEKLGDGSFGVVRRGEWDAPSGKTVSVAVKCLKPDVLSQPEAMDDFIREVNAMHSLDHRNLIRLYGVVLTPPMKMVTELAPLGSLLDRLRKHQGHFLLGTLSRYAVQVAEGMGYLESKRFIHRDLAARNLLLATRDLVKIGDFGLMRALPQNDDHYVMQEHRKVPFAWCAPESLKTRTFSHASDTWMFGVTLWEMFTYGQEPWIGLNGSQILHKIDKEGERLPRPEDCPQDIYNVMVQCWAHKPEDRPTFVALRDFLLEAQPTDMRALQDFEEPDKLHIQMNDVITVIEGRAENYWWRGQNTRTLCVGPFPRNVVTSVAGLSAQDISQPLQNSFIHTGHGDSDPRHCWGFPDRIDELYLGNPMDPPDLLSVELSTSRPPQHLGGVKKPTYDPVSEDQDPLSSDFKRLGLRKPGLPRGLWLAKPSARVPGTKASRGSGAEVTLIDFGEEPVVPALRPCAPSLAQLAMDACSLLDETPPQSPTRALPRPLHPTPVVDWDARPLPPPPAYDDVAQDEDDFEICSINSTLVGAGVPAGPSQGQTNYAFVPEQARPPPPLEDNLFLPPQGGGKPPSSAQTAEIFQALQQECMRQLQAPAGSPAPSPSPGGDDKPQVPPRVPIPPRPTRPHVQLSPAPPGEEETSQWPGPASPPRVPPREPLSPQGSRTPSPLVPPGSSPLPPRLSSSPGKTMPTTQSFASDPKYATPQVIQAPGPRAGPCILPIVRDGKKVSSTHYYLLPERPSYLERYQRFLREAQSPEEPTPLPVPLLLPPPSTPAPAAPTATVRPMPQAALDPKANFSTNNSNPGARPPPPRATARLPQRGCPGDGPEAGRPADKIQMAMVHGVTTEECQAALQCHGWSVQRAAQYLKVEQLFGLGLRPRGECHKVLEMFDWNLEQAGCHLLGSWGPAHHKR

PAK2 (human) = PAK2 (human) (UniProt Q13177)
EPHB1 (human) = EPHB1 (human) (UniProt P54762)
CAMK2A (human) = CAMK2A (human) (UniProt Q9UQM7)
FES (human) = FES (human) (UniProt P07332)
CAMK1 (human) = CAMK1 (human) (UniProt Q14012)
PKN1 (human) = PKN1 (human) (UniProt Q16512)
PIM3 (human) = PIM3 (human) (UniProt Q86V86)
MAP3K8 (human) = MAP3K8 (human) (UniProt P41279)
WNK3 (human) = WNK3 (human) (UniProt Q9BYP7)
CSNK1E (human) = CSNK1E (human) (UniProt P49674)
Sequence of CSNK1E (human) (P49674 whole entry, looked up): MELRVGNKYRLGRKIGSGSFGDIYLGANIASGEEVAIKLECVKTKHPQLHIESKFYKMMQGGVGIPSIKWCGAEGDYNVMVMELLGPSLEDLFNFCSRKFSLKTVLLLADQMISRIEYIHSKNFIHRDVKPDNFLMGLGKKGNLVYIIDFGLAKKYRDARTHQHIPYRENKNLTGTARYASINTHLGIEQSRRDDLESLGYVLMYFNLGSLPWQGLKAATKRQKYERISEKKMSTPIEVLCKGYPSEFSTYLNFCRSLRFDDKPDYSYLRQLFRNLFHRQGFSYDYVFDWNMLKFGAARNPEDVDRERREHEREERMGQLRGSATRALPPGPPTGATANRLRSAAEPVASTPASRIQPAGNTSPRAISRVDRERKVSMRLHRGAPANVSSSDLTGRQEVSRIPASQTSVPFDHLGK

CSNK1G2 (human) = CSNK1G2 (human) (UniProt P78368)

Sequence of CDK2 CCNA2 (human) (P20248 whole entry, looked up, other chains not shown): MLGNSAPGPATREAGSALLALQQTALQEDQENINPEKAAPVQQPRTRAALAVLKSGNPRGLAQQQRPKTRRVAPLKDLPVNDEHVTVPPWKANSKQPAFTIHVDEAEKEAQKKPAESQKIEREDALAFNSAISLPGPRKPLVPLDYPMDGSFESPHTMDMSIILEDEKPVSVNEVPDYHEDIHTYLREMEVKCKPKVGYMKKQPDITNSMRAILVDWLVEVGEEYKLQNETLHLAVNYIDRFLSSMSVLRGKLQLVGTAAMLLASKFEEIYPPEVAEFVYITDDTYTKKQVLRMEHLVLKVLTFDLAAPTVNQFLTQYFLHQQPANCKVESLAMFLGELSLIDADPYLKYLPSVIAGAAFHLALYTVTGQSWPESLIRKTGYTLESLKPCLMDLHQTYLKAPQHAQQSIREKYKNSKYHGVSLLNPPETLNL

## Cn1cc(/C=C2\C(=O)Nc3ccc(S(N)(=O)=O)cc32)c2ccccc21
CAMK1D (human)
  residual activity: 69.6%
CDK2 CCNA2 (human)
  residual activity: 66.2%
CDK1 CCNB1 (human)
  residual activity: 49.6%
TAOK1 (human)
  residual activity: 98.3%
MAPK8 (human)
  residual activity: 108%
EPHB4 (human)
  residual activity: 57.4%
PLK2 (human)
  residual activity: 104%
INSR (human)
  residual activity: 87.4%
IGF1R (human)
  residual activity: 87.9%
CDC42BPA (human)
  residual activity: 70.7%
INSRR (human)
  residual activity: 86.9%
EPHA5 (human)
  residual activity: 69.3%
[1]
  residual activity: 35%
MAPKAPK3 (human)
  residual activity: 91.5%
ZAP70 (human)
  residual activity: 102%
RPS6KA4 KD2 (human)
  residual activity: 71.2%
EPHA7 (human)
  residual activity: 41.3%
MAPK12 (human)
  residual activity: 101%
STK11 (human)
  residual activity: 68.2%
AKT1 (human)
  residual activity: 105%
CSNK2A1 (human)
  residual activity: 84.7%
FGFR4 (human)
  residual activity: 74.1%
MAP3K10 (human)
  residual activity: 95.9%
PRKCG (human)
  residual activity: 106%
FGFR1 (human)
  residual activity: 50.2%
MATK (human)
  residual activity: 103%
CAMK2B (human)
  residual activity: 86.5%
TAOK3 (human)
  residual activity: 60.2%
GRK5 (human)
  residual activity: 86.3%
SRPK3 (human)
  residual activity: 88.5%
TNK2 (human)
  residual activity: 72.3%
PAK2 (human)
  residual activity: 79.2%
EPHB1 (human)
  residual activity: 68.7%
CAMK2A (human)
  residual activity: 57.6%
FES (human)
  residual activity: 57.4%
CAMK1 (human)
  residual activity: 75.7%
PKN1 (human)
  residual activity: 68.9%
PIM3 (human)
  residual activity: 91.6%
MAP3K8 (human)
  residual activity: 96.8%
WNK3 (human)
  residual activity: 99%
CSNK1E (human)
  residual activity: 89%
CSNK1G2 (human)
  residual activity: 100%

## COc1cccc(-c2cc(=O)c3ccccc3o2)c1N
CAMK1D (human)
  residual activity: 65.3%
CDK2 CCNA2 (human)
  residual activity: 102%
CDK1 CCNB1 (human)
  residual activity: 99.8%
TAOK1 (human)
  residual activity: 77.9%
MAPK8 (human)
  residual activity: 95.3%
EPHB4 (human)
  residual activity: 101%
PLK2 (human)
  residual activity: 92.5%
INSR (human)
  residual activity: 106%
IGF1R (human)
  residual activity: 91.3%
CDC42BPA (human)
  residual activity: 98.5%
INSRR (human)
  residual activity: 98.4%
EPHA5 (human)
  residual activity: 97.9%
[1]
  residual activity: 92.7%
MAPKAPK3 (human)
  residual activity: 88.1%
ZAP70 (human)
  residual activity: 107%
RPS6KA4 KD2 (human)
  residual activity: 103%
EPHA7 (human)
  residual activity: 98.6%
MAPK12 (human)
  residual activity: 95.5%
STK11 (human)
  residual activity: 101%
AKT1 (human)
  residual activity: 93.8%
CSNK2A1 (human)
  residual activity: 94.9%
FGFR4 (human)
  residual activity: 104%
MAP3K10 (human)
  residual activity: 90%
PRKCG (human)
  residual activity: 100%
FGFR1 (human)
  residual activity: 96.8%
MATK (human)
  residual activity: 88.6%
CAMK2B (human)
  residual activity: 103%
TAOK3 (human)
  residual activity: 77%
GRK5 (human)
  residual activity: 97.3%
SRPK3 (human)
  residual activity: 91%
TNK2 (human)
  residual activity: 79.9%
PAK2 (human)
  residual activity: 104%
EPHB1 (human)
  residual activity: 88%
CAMK2A (human)
  residual activity: 93.6%
FES (human)
  residual activity: 94.3%
CAMK1 (human)
  residual activity: 98.5%
PKN1 (human)
  residual activity: 102%
PIM3 (human)
  residual activity: 90.9%
MAP3K8 (human)
  residual activity: 85.7%
WNK3 (human)
  residual activity: 96.3%
CSNK1E (human)
  residual activity: 97.5%
CSNK1G2 (human)
  residual activity: 98.4%

## COc1cc2ncnc(Nc3ccc(O)c(Br)c3)c2cc1OC
CAMK1D (human)
  residual activity: 98.6%
CDK2 CCNA2 (human)
  residual activity: 88.7%
CDK1 CCNB1 (human)
  residual activity: 81.3%
TAOK1 (human)
  residual activity: 93.3%
MAPK8 (human)
  residual activity: 101%
EPHB4 (human)
  residual activity: 52.2%
PLK2 (human)
  residual activity: 104%
INSR (human)
  residual activity: 92.4%
IGF1R (human)
  residual activity: 104%
CDC42BPA (human)
  residual activity: 96.9%
INSRR (human)
  residual activity: 96.8%
EPHA5 (human)
  residual activity: 72.3%
[1]
  residual activity: 96.5%
MAPKAPK3 (human)
  residual activity: 96.2%
ZAP70 (human)
  residual activity: 99.7%
RPS6KA4 KD2 (human)
  residual activity: 93.8%
EPHA7 (human)
  residual activity: 46.1%
MAPK12 (human)
  residual activity: 92.8%
STK11 (human)
  residual activity: 103%
AKT1 (human)
  residual activity: 94%
CSNK2A1 (human)
  residual activity: 93.7%
FGFR4 (human)
  residual activity: 103%
MAP3K10 (human)
  residual activity: 98.2%
PRKCG (human)
  residual activity: 94.1%
FGFR1 (human)
  residual activity: 93.4%
MATK (human)
  residual activity: 98%
CAMK2B (human)
  residual activity: 99.3%
TAOK3 (human)
  residual activity: 98.8%
GRK5 (human)
  residual activity: 101%
SRPK3 (human)
  residual activity: 92.4%
TNK2 (human)
  residual activity: 10.5%
PAK2 (human)
  residual activity: 90.6%
EPHB1 (human)
  residual activity: 81.4%
CAMK2A (human)
  residual activity: 98%
FES (human)
  residual activity: 94.9%
CAMK1 (human)
  residual activity: 103%
PKN1 (human)
  residual activity: 95.6%
PIM3 (human)
  residual activity: 73.3%
MAP3K8 (human)
  residual activity: 97.6%
WNK3 (human)
  residual activity: 95.7%
CSNK1E (human)
  residual activity: 85.1%
CSNK1G2 (human)
  residual activity: 96.4%

## COc1cc2c(cc1OC)-c1[nH]nc(Nc3cccc(F)c3)c1C2
CAMK1D (human)
  residual activity: 89.8%
CDK2 CCNA2 (human)
  residual activity: 87.5%
CDK1 CCNB1 (human)
  residual activity: 101%
TAOK1 (human)
  residual activity: 76.3%
MAPK8 (human)
  residual activity: 85.2%
EPHB4 (human)
  residual activity: 95.3%
PLK2 (human)
  residual activity: 97.1%
INSR (human)
  residual activity: 101%
IGF1R (human)
  residual activity: 93.9%
CDC42BPA (human)
  residual activity: 119%
INSRR (human)
  residual activity: 99.2%
EPHA5 (human)
  residual activity: 93.4%
[1]
  residual activity: 81.3%
MAPKAPK3 (human)
  residual activity: 90.8%
ZAP70 (human)
  residual activity: 95.3%
RPS6KA4 KD2 (human)
  residual activity: 99.8%
EPHA7 (human)
  residual activity: 98%
MAPK12 (human)
  residual activity: 101%
STK11 (human)
  residual activity: 104%
AKT1 (human)
  residual activity: 93.3%
CSNK2A1 (human)
  residual activity: 96.6%
FGFR4 (human)
  residual activity: 91.6%
MAP3K10 (human)
  residual activity: 87.1%
PRKCG (human)
  residual activity: 102%
FGFR1 (human)
  residual activity: 99.2%
MATK (human)
  residual activity: 92.1%
CAMK2B (human)
  residual activity: 101%
TAOK3 (human)
  residual activity: 91.5%
GRK5 (human)
  residual activity: 95.8%
SRPK3 (human)
  residual activity: 99.7%
TNK2 (human)
  residual activity: 15.1%
PAK2 (human)
  residual activity: 99.6%
EPHB1 (human)
  residual activity: 100%
CAMK2A (human)
  residual activity: 95.6%
FES (human)
  residual activity: 95.6%
CAMK1 (human)
  residual activity: 98.4%
PKN1 (human)
  residual activity: 106%
PIM3 (human)
  residual activity: 95.3%
MAP3K8 (human)
  residual activity: 99.9%
WNK3 (human)
  residual activity: 104%
CSNK1E (human)
  residual activity: 94.3%
CSNK1G2 (human)
  residual activity: 89.7%

From the kinase profiling compilation of Christmann-Franck et al. (2016)
